According to paper PMC10218303, “Novel Polymyxin-Inspired Peptidomimetics Targeting the SARS-CoV-2 Spike:hACE2 Interface” (International Journal of Molecular Sciences, 2023):

Experiments:
in vitro = conditions: human
[1] = system: SARS-CoV-2 (strain 20A.EU2); assay: microbe, parasite or virus in culture; conditions: Severe acute respiratory syndrome coronavirus 2, 96 h, read-out: IC50 20A.EU2

Work on `CCC(CC)COC(=O)[C@H](C)N[P@](=O)(OC[C@H]1O[C@@](C#N)(c2ccc3c(N)ncnn23)[C@H](O)[C@@H]1O)Oc1ccccc1` [remdesivir, reference compound] yielded a CC50 (in vitro) of 43 µM and an IC50 [1] of 0.0044 µM.
